Measured values published in patent publication US20110250294A1, “COMBINATIONS OF PRESERVATIVE COMPOSITIONS FOR OPHTHALMIC FORMULATIONS” (ALLERGAN, INC., priority 2010, published 2011).

System: S. aureus, P. aeruginosa, c. albicans, E. coli and/or A. niger
Experiment: abbreviated preservative efficacy test against Ph Eur-A (EP-A) and Ph Eur-B (EP-B) criteria
Format: cell-based
Settings: 20 ppm BAK alone in ophthalmic solution
Procedure: Each of these formulations is tested by performing an abbreviated preservative efficacy test using test organisms S. aureus, P. aeruginosa, c. albicans, E. coli and/or A. niger. The formulations are tested against United States Preservative Efficacy Test (USP), European Efficacy Test-A (EP-A) and European Efficacy Test-B (EP-B) criteria as indicated. Ten (10) ml of each formulation is challenged with approximately 10^5 cfu/ml of test organism. At appropriate time intervals, the amount of bacterial and fungal survivors are assayed using Dey Engley broth (DE) as the neutralizer media. DE, along with filtration, is sufficient at neutralizing the antimicrobial agents in the compositions. One (1) ml of each sample is diluted into nine (9) ml of DE. One (1) ml of the 1:10 dilution is filtered through a 0.45 µm filter and washed with 100 ml of a saline/polysorbate 80 solution. After washing the filtrate a second time with 100 ml of saline/polysorbate 80 solution, the filtrate is placed onto a TSA plate for bacteria and SAB for fungi.

With benzalkonium chloride [BAK] the “Ph Eur-B & A criteria (pass/fail)” value was “failed”.
